BindingDB's records for doi:10.1016/j.ab.2009.08.013 (Novartis Institute For Tropical Diseases, 2009)
Non-standard residues stand in square brackets, D forms with d. Residues, ends and D or L forms follow the SMILES beside them. *: point of attachment. Nle = CCCC[C@H](N)C(=O)O; Bz = O=C(c1ccccc1)*

Tests used:
[1] = biological target: T1, Genome polyprotein [1066-1250,R1182K]/[1394-1440,K1405R,D1408E] (dengue virus type 2, UniProt P14340+P27914, D1408E/K1405R/R1182K); experiment: Enzyme Inhibition Assay; details: pH 7.5; 37 °C
T1 construct: 1066-1250; 1394-1440
T1 sequence (P14340 1394-1440, looked up, stated change not applied): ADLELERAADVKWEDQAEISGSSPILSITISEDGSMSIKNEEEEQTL
T1 sequence (P27914 1066-1250, looked up, stated change not applied): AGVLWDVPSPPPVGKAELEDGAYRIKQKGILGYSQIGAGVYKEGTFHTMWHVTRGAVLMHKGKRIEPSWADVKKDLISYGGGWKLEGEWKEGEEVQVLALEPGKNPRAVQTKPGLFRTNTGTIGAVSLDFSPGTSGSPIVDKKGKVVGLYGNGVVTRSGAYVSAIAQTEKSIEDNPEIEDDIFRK
Experimental: (§1) Inhibitors were assayed in a 96-well plate format. […] The reaction was initiated by the addition of substrate Bz-nKRR-AMC. Reaction progress was monitored continuously by following the increase in fluorescence on a Tecan Safire2 plate reader. IC50 values of inhibitors were derived by fitting the calculated initial velocities to a nonlinear regression curve using GraphPad Prism software. Each point of the IC50 curve was measured in duplicate during a single experiment.

[2] = biological target: T2, Genome polyprotein [1393-1439,E1407V]/[1476-1660,R1508K,A1566M] (dengue virus type 1, UniProt P17763+P33478, A1566M/E1407V/R1508K); experiment: Enzyme Inhibition Assay; details: pH 7.5; 37 °C
T2 construct: 1393-1439; 1476-1660
T2 sequence (P17763 1476-1660, looked up, stated change not applied): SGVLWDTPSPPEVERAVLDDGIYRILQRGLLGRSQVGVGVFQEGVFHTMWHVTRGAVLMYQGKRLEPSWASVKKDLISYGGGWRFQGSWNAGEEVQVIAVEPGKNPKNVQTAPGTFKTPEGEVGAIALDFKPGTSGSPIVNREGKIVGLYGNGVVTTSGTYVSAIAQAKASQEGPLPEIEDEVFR
T2 sequence (P33478 1393-1439, looked up, stated change not applied): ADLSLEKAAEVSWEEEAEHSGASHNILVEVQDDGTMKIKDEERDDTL
Experimental: as §1

[3] = biological target: T3, Genome polyprotein [1394-1440]/[1476-1660,T1585M] (dengue virus type 3, UniProt P27915+Q6YMS4, T1585M); experiment: Enzyme Inhibition Assay
T3 construct: 1394-1440; 1476-1660
T3 sequence (P27915 1394-1440, stated change not applied): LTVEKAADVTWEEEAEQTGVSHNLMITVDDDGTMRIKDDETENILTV
T3 sequence (Q6YMS4 1476-1660, looked up, stated change not applied): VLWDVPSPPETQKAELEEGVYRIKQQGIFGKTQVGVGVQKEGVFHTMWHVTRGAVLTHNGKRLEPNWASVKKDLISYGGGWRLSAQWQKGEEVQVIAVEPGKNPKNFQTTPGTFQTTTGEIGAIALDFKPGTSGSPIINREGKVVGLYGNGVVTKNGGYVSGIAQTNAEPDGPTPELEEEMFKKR
Experimental: as §1

[4] = biological target: T4, Genome polyprotein [1394-1440]/[1476-1660] (dengue virus type 4, UniProt Q58HT7); experiment: Enzyme Inhibition Assay
T4 construct: 1394-1440; 1476-1660
T4 sequence (Q58HT7 1394-1440): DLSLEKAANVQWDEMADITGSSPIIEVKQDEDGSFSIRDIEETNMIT
T4 sequence (Q58HT7 1476-1660): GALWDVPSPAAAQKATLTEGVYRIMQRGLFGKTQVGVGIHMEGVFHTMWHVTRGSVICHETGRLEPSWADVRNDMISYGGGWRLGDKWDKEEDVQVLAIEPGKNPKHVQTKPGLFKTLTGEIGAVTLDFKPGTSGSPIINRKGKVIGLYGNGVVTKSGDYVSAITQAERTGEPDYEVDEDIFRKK
Experimental: as §1

[5] = biological target: T5, Genome polyprotein [1424-1463]/[1502-1685] (West Nile virus, UniProt P06935); experiment: Enzyme Inhibition Assay (IC50) and Fluorescence Quench Assay (KD); details: pH 7.5; 37 °C
T5 construct: 1424-1463; 1502-1685
T5 sequence (P06935 whole entry) 1: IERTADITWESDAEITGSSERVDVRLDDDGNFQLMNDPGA
T5 sequence (P06935 whole entry) 2: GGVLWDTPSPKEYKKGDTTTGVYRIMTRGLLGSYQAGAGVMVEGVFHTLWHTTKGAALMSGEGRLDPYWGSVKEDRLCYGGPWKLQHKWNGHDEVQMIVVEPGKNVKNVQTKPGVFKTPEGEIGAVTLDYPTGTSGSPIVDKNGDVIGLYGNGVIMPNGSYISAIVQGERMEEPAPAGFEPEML
Experimental: (§2) Inhibitors were assayed in a 96-well plate format. […] The reaction was initiated by the addition of substrate Bz-nKRR-AMC. Reaction progress was monitored continuously by following the increase in fluorescence on a Tecan Safire2 plate reader. IC50 values of inhibitors were derived by fitting the calculated initial velocities to a nonlinear regression curve using GraphPad Prism software. Each point of the IC50 curve was measured in duplicate during a single experiment. Compounds were tested for binding (KD) using fluorescence quench assay. Two protein solutions were prepared (2-5 uM protein with and without 40 uM compound) and were mixed in a microplate to obtain 12 different compound concentrations ranging from 0 to 40 uM. Then each dilution comprising 90 ul was transferred to a UV-Star 96-well microplate. […] Binding curves were analyzed according to the two-state model describing the formation of a 1:1 complex. Kd values were obtained from curve-fit of binding isotherms.

[6] = biological target: T1, Genome polyprotein [1066-1250,R1182K]/[1394-1440,K1405R,D1408E]; experiment: as above; details: pH 7.5; 37 °C
Experimental: as §2

[7] = biological target: T5, Genome polyprotein [1424-1463]/[1502-1685]; experiment: Enzyme Inhibition Assay; details: pH 7.5; 37 °C
Experimental: as §1

Structure (SMILES) | IC50 [1] | IC50 [2] | IC50 [3] | IC50 [4] | Kd [5] | IC50 [6] | Kd [6] | IC50 [5] | IC50 [7]
CCCC[C@H](NC(=O)c1ccccc1)C(=O)N[C@@H](CCCCN)C(=O)N[C@@H](CCCNC(=N)N)C(=O)N[C@H](C=O)CCCNC(=N)N [Bz-Nle-Lys-Arg-Arg-H] (Bz-[Nle]KRR-aldehyde) | 8.9 µM | 11.8 µM | 7.9 µM | 1.4 µM |  |  |  |  | 
CC1CNC(c2ccc(Nc3nnc(Nc4ccc(C5=NC(C)CN5)cc4)c4ccccc34)cc2)=N1 (configuration not stated) [phthalazine-based compound, 1] |  | 36.4 µM | 17.5 µM | 32.8 µM | 21 µM | 6 µM | 7.2 µM |  | 
c1ccc(-c2ccc(Nc3nnc(Nc4ccc(C5=NCCN5)cc4)c4ccccc34)cc2)cc1 [phthalazine-based compound, 2] |  | 2 µM | 1.6 µM | 2 µM |  | 2.3 µM |  | 3.6 µM | 
c1ccc2c(Nc3ccc(C4=NC5CCCCC5N4)cc3)nnc(Nc3ccc(C4=NC5CCCCC5N4)cc3)c2c1 (configuration not stated) [phthalazine-based compound, 3] |  | 10.7 µM | 8.5 µM | 13.6 µM | 90 µM | 1.1 µM | 7.7 µM | 22 µM | 
c1ccc2c(Nc3ccc4c(c3)CNCC4)nnc(Nc3ccc(C4=NCCN4)cc3)c2c1 [phthalazine-based compound, 4] |  | 233 µM | 100 µM | 64.8 µM | 4.6 µM | 27.4 µM | 22.9 µM |  | 
NCc1ccc(Nc2nnc(Nc3ccc(C4=NCCN4)cc3)c3ccccc23)cc1 [phthalazine-based compound, 5] |  | 12.3 µM | 8.7 µM | 8.2 µM | 100 µM | 5.8 µM | 18.6 µM |  | 
c1ccc2c(Nc3ccc4c(c3)CCNC4)nnc(Nc3ccc(C4=NCCN4)cc3)c2c1 [phthalazine-based compound, 6] |  | 170 µM | 86 µM | 43 µM | 7 µM | 55 µM | 54 µM | 6.2 µM | 
COC(=O)c1ccc(-c2ccc(Nc3nnc(Nc4ccc(C5=NCCN5)cc4)c4ccccc34)cc2)cc1 [phthalazine-based compound, 7] |  | 2.72 µM | 1 µM | 1.3 µM |  | 1.6 µM |  | 2.2 µM | 
c1ccc2c(Nc3ccc(C4=NCCN4)cc3)nnc(Nc3ccc(C4=NCCN4)cc3)c2c1 [phthalazine-based compound, 8] |  | 21.4 µM | 27.9 µM | 19.8 µM |  | 10.2 µM | 16.3 µM |  | 16 µM
Nc1ccc2c(Nc3ccc(C4=NCCN4)cc3)nnc(Nc3ccc(C4=NCCN4)cc3)c2c1 [phthalazine-based compound, 9] |  | > 100 µM | > 100 µM | > 100 µM |  | > 100 µM | 100 µM |  | 
